# Reference: patent US20040072201A1, “Methods of identifying compounds that inhibit nonstop degradation of mRNA” (priority 2002, published 2004)
# Assays:
# [1] = tested on: WT-PGK1 and Ter-poly(A)-PGK1 transcripts; assay: half-lives of WT-PGK1 and Ter-poly(A)-PGK1 transcripts in yeast treated with paromomycin; format: cell-based, Saccharomyces cerevisiae; settings: 100 μg/ml CHX added during the last hour before half-life determination
# Protocol: FIG. 2 depicts graphs of the half-lives of WT-PGK1 and Ter-poly(A)-PGK1 transcripts in wild-type-(WT) and SK17-deleted (ski7A) yeast strains treated with the indicated dose of paromomycin (mg/ml) (PM) for 20 hours. For cycloheximide (CHX) experiments, yeast were treated identically except 100 μg/ml of CHX was added during the last hour before half-life determination.
# Any event that diminishes translational fidelity and promotes readthrough of termination codons could plausibly result in the generation of substrates for nonstop decay. In view of recent attempts to treat genetic disorders resulting from PTCs with long-term and high-dose aminoglycoside regimens, this may achieve medical significance. As a proof-of-concept experiment, we examined the performance of transcripts with one [Ter-poly(A)-PGK1] or multiple (WT-PGK1) in-frame termination codons (including those in the 3′ UTR) in yeast strains after treatment with paromomycin, which induces ribosomal readthrough.
# 27. All PGK1 minigene constructs were under the control of the GAL1 upstream activation sequence (UAS). […] Half-lives were determined by plotting the percent of mRNA remaining versus time on a semi-log plot. All half-lives were determined at 25° C. except for the ccr4Δ (performed at 30° C.) and dcp1-2 [performed after shift to the nonpermissive temp (37° C.) for 1 hour] experiments.
# nonstop-PGK1 transcripts = assay: nonstop-PGK1 mRNA stability (half-life by Northern blot) in yeast; format: cell-based, Saccharomyces cerevisiae; settings: treatment with translation inhibitor
# Text: In order to determine whether the presence of translational termination influences mRNA stability, we assayed PGK1 tran-scripts in Saccharomyces cerevisiae derived from the following constructs (3): wild-type PGK1 (WT-PGK1), a nonsense form of PGK1 harboring a PTC at codon 22 [PTC(22)-PGK1], and nonstop-PGK1 that was created by removing the bona fide termination codon and all in-frame termination codons in the 3′ UTR (untranslated region) from the WT-PGK1 transcript. Nonstop-PGK1 transcripts were as labile as their nonsense-containing counterparts. At least three trans-acting factors (Upf1p, Upf2p, and Upf3p) are essential for nonsense-mediated mRNA decay (NMD) in S. cerevisiae (4, 5). Remarkably, nonstop transcripts were not stabilized in strains lacking Upf1p, distinguishing the pathway of decay from NMD.
# Additional experiments were performed to assess the role of translation in nonstop decay. […] It has been shown that translation into the 3′ UTR of selected transcripts can displace bound trans-factors that are positive determinants of message stability (13, 14). […]
# 27. […] Half-lives were determined by plotting the percent of mRNA remaining versus time on a semi-log plot. All half-lives were determined at 25° C. except for the ccr4Δ (performed at 30° C.) and dcp1-2 [performed after shift to the nonpermissive temp (37° C.) for 1 hour] experiments.
# [2] = tested on: cultured chicken hepatocellular carcinoma cells; assay: ratio of truncated to full-length GHR transcripts after translational arrest; format: cell-based; settings: after treatment with translational inhibitor
# [3] = tested on: termination codon (UGA) in renilla luciferase ORF; assay: readthrough assay using a dual luciferase reporter construct; format: cell-based
# Text: FIG. 3 depicts the results of a readthrough assay using a dual luciferase reporter construct.
# This example describes a readthrough assay that uses a dual lucifierase reporter construct. The firefly luciferase ORF is wild-type while translation of the renilla luciferase ORF is prevented by the presence of a termination codon (UGA). Cells were either untreated or treated with siRNAs directed against RRP4, an essential component of the exosome.
molecule,measurement,setting,value
C[C@@H]1C[C@@H]([C@H](O)CC2CC(=O)NC(=O)C2)C(=O)[C@@H](C)C1 [cycloheximide],effect on paromomycin-induced decrease in stability of Ter-poly(A)-PGK1 and WT-PGK1 transcripts,[1],could be reversed
same,stability of nonstop-PGK1 transcripts,nonstop-PGK1 transcripts,substantially increased the stability
CC[C@H]1CN2CCc3cc(OC)c(OC)cc3[C@@H]2C[C@@H]1C[C@H]1NCCc2cc(OC)c(OC)cc21 [emetine],ratio of truncated-to-full-length GHR transcripts,[2],dramatically increased
gentamycin,"readthrough, renilla:firefly ratio","[3]; exosome function inhibited by siRNAs directed against RRP4, increasing concentrations",dose-dependent increase in readthrough
same,"readthrough, renilla:firefly ratio","[3]; intact exosome function (control RNAi), increasing concentrations",do not result in a significant increase in readthrough
